From US11166941B2, “Synergistic nutritional compositions for enhancing ATP efficiency” (CELAGENEX RESEARCH (INDIA) PVT. LTD., priority 2020, dated 2021)

Experiments:
[1] = system: HepG2 (Human Hepatocyte) cell line; experiment: In vitro cytotoxicity by MTT assay on HepG2 cell line; assay type: cell-based; details: 72 hours; for IC50 / inhibition at 62.5 µg/mL / inhibition at 125 µg/mL / inhibition at 250 µg/mL / inhibition at 500 µg/mL / inhibition at 1000 µg/mL: Homo sapiens; for IC50: read-out: CTC 50
Description: The in vitro cytotoxicity was performed on HepG2 (Human Hepatocyte) cell line to find a non-toxic concentration of the test substances by MTT assay and the potential of test substances to increase the cellular ATP levels was evaluated by kit method. For test substance ABC, the test substances were combined in the weight ratio of 1:0.05:0.01. A weight of about 10 mg of ABC was dissolved in 100 μl of DMSO and the volume was made up to 1 ml with DMEM-HG (Dulbecco's Modified Eagle Medium High Glucose). For individual test substances A, B and C, about 10 mg of all the test substances were weighed and separately dissolved with 100 μl of DMSO and volume was made up with DMEM-HG supplemented with 2% inactivated FBS to obtain a stock solution of 1 mg/ml concentration. The samples were further sterilized by 0.22 syringe filtration. Serial two-fold dilutions were prepared from the stock for carrying out further studies. Cell line was cultured in DMEM-HG supplemented with 10% inactivated Fetal Bovine Serum (FBS), penicillin (100 IU/ml), streptomycin (100 μg/ml) and amphotericin B (5 μg/ml) in a humidified atmosphere of 5% CO2 at 37° C. until confluent. The cells were dissociated with TPVG solution (0.2% trypsin, 0.02% EDTA, 0.05% glucose in PBS). The stock cultures were grown in 25 cm^2 culture flasks and all experiments were carried out in 96 well microtitre plates (Tarsons India Pvt. Ltd., Kolkata, India). The monolayer cell culture was trypsinized and the cell count was adjusted to 1.0×10^5 cells/ml using DMEM-HG containing 10% FBS. To each well of the 96 well microtitre plate, 0.1 ml of the diluted cell suspension was added. After 24 hours, when a partial monolayer was formed, the supernatant was flicked off, the monolayer was washed once with medium and 100 μl of different concentrations of test substances were added. The plate was then incubated at 37° C. for 72 hours in a 5% CO2 atmosphere, and microscopic examination was carried out with observations being noted at a 24-hour interval. After 72 hours of incubation, the drug solutions in the wells were discarded and 50 μl of MTT in PBS was added to each well. The plate was gently shaken and incubated for 3 hours at 37° C. in a 5% CO2 atmosphere. The supernatant was removed and 100 μl of 2-propanol was added and the plate was gently shaken to solubilize the formed formazan. The absorbance was measured using a microplate reader at a wavelength of 540 nm. The percentage growth inhibition was calculated using the standard formula. The concentration of test substances needed to inhibit the growth of the cell by 50% i.e., CTC50 values were generated from the dose-response curves.

HepG2 cells = experiment: Estimation of cellular respiration by measuring cellular ATP levels (kit method) in HepG2 cells; assay type: cell-based, Human; details: for % ATP Enhancement / ATP enhancement fold: over control; for Cellular ATP Conc.: HepG2, 2 hours treatment
Description: The test substances were evaluated for their in vitro effect on cellular energy by measuring cellular ATP levels in human Hepatocytes (HepG2) cell line. In the given experimental conditions, treatment with the test substances improved cellular ATP levels in vitro [J Immunol Methods; 1986; 89: 271-277]; [Proc Nal Acad Sci USA; 2009; 106: 15651-15656].
For test substance ABC, the test substances were combined in the weight ratio of 1:0.05:0.01. A weight of about 10 mg of ABC was dissolved in 100 μl of DMSO and the volume was made up to 1 ml with DMEM-HG (Dulbecco's Modified Eagle Medium High Glucose). For individual test substances A, B and C, about 10 mg of all the test substances were weighed and separately dissolved with 100 μl of DMSO and volume was made up with DMEM-HG supplemented with 2% inactivated FBS to obtain a stock solution of 1 mg/ml concentration. The samples were further sterilized by 0.22 syringe filtration. Serial two-fold dilutions were prepared from the stock for carrying out further studies.
Cell line was cultured in DMEM-HG supplemented with 10% inactivated Fetal Bovine Serum (FBS), penicillin (100 IU/ml), streptomycin (100 μg/ml) and amphotericin B (5 μg/ml) in a humidified atmosphere of 5% CO2 at 37° C. until confluent. The cells were dissociated with TPVG solution (0.2% trypsin, 0.02% EDTA, 0.05% glucose in PBS). The stock cultures were grown in 25 cm^2 culture flasks and all experiments were carried out in 96 well microtitre plates (Tarsons India Pvt. Ltd., Kolkata, India).
HepG2 cells were trypsinized from stock culture flasks and the cell count was adjusted to 1.0×10^5 cells/ml to obtain a cell suspension that was seeded into a 6-well plate. After 24 hours, cell cultures achieved 70-80% confluency and were treated with different nontoxic concentrations of test substances. After 2 hours of treatment, the plate was washed with phosphate buffer saline. The cellular ATP level determination was performed according to the instructions given in the kit manual (SIGMA, #MAK190). At the end of the experiment, the optical density was read at 570 nm using microplate reader. From the absorbance values, the cellular ATP levels were estimated using kit protocol and the concentration of cellular ATP in treated groups were determined in comparison to the control groups.

[2] = cell studies, background statement; cited from earlier work
[3] = concentration inhibiting cell growth by 50%

Row | Compound | IC50 [1, 3] [µg/mL] | inhibition at 62.5 µg/mL ([1]; test conc. 62.5 μg/ml) [%] | inhibition at 125 µg/mL ([1]; test conc. 125 μg/ml) [%] | inhibition at 250 µg/mL ([1]; test conc. 250 μg/ml) [%] | inhibition at 500 µg/mL ([1]; test conc. 500 μg/ml) [%] | inhibition at 1000 µg/mL ([1]; test conc. 1000 μg/ml) [%] | enhancement of cellular ATP levels over the control (in words) (HepG2 cells; HepG2, 500 μg/ml) | % ATP Enhancement (HepG2 cells; HepG2, 500 μg/ml) [%] | ATP enhancement fold (HepG2 cells; HepG2, 500 μg/ml) [fold] | also measured
1 | O=C(O)CC(=O)C(=O)O [Stabilized Oxaloacetate (A), Oxaloacetic acid] | > 1000 | 10.7 ± 0.84 | 16.6 ± 0.82 | 23.8 ± 2.25 | 34.4 ± 2.2 | 40.4 ± 1.22 | No significant enhancement | 10 | 1.09 | Cellular ATP Conc. (HepG2 cells; 500 μg/ml): 5.42 ± 0.25 mM; Cellular ATP Conc. (HepG2 cells; 500 μg/ml, listed as Oxaloacetic acid (A)): 5.42 ± 0.25 mM
2 | Oc1ccc(C=Cc2cc(O)cc(O)c2)cc1 [Resveratrol, reference compound] | – | – | – | – | – | – | – | – | – | % ATP Enhancement (HepG2 cells; HepG2, 100 μg/ml): 13%; ATP enhancement fold (HepG2 cells; HepG2, 100 μg/ml): 1.09 fold; Cellular ATP Conc. (HepG2 cells; 100 μg/ml): 5.56 ± 0.37 mM
3 | O=C(O)CCCC[C@@H]1SC[C@@H]2NC(=O)N[C@@H]21 [D-Biotin (B), Biotin] | > 1000 | 6.13 ± 3.48 | 25.1 ± 0.81 | 31.2 ± 1.17 | 42.9 ± 1.29 | 47.6 ± 1.45 | No significant enhancement | 22 | 1.11 | Cellular ATP Conc. (HepG2 cells; 500 μg/ml, listed as B): 6.05 ± 0.33 mM; Cellular ATP Conc. (HepG2 cells; 500 μg/ml, listed as Biotin (B)): 6.05 ± 0.33 mM
4 | O=C(O)CC(=O)C(=O)O [oxaloacetate] | – | – | – | – | – | – | – | – | – | increase muscular endurance [2]: up to 10%
5 | manganese (II) sulphate monohydrate [Manganese-Sulphate (C)] | – | – | – | – | – | – | No significant enhancement | 00 | 1.00 | CTC 50 [1, 3]: 558.91 ± 6.22 µg/mL; % Inhibition ([1]; test conc. 62.5 μg/ml): 30.00 ± 0.54%; % Inhibition ([1]; test conc. 125 μg/ml): 35.54 ± 0.47%; % Inhibition ([1]; test conc. 250 μg/ml): 42.44 ± 0.81%; % Inhibition ([1]; test conc. 500 μg/ml): 48.75 ± 0.18%; % Inhibition ([1]; test conc. 1000 μg/ml): 59.35 ± 0.63%; Cellular ATP Conc. (HepG2 cells; 500 μg/ml, listed as C, sulphate monohydrate): 4.92 ± 0.13 mM; Cellular ATP Conc. (HepG2 cells; 500 μg/ml, listed as Manganese sulphate (C), sulphate monohydrate): 4.92 ± 0.13 mM
6 | OO [Composition H2O2, H2O2, reference compound] | – | – | – | – | – | – | – | – | – | ATP enhancement fold (HepG2 cells; HepG2, 20 μM): 0.67 fold; Cellular ATP Conc. (HepG2 cells; 20 μM): 1.97 ± 0.45 mM
